Test results taken from PMC12152147, “DDB1 engagement defines the selectivity of S656 analogs for cyclin K degradation over CDK inhibition” (EMBO Reports, 2025).

Test system: OCI-AML5 cells
Assay: Dose-response proliferative assay in OCI-AML5 (4 days, CellTiterGlo)
Format: cell-based, H. sapiens
Conditions: Homo sapiens, OCI-AML-5, 96 h, 4 days incubation; read-out: IC50 OCI-AML5
Outline: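 Viability assessed after 4 days of compound exposure at 37 °C, 5% CO2. Compounds tested as 8 dilutions (1:4, 10 μM to 0.5 nM) on 300 OCI-AML5 cells/well grown in αMEM with 10% heat-inactivated FBS and 10 ng/mL GM-CSF.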

## CN(CCOCCOCCN)c1ccc(CC(=O)Nc2ncc(SCc3cccnc3)s2)cc1 [UOM-005790]
  IC50: 680 nM
